We go through 14 compounds from US11142524B2, “Substituted-3H-imidazo[4,5-c]pyridine and 1H-pyrrolo[2,3-c]pyridine series of novel Ectonucleotide Pyrophosphatase/Phosphodiesterase-1 (ENPP1) and stimulator for interferon genes (STING) modulators as cancer immunotherapeutics” (Stingray Therapeutics, Inc., priority 2018, dated 2021).

Structures can show the parent of a compound that is named as a salt. Where two headings read alike, the source gives them in different places.

For assay [1], the target named is T1, ENPP1 protein (Homo sapiens (Human), UniProt P22413). Description: ENPP1 Inhibition Assay (thymidine 5′-monophosphate p-nitrophenol ester substrate). It is filed as biochemical. Here is the method:
Assay Buffer: 1 mM CaCl2, 0.2 mM ZnCl2, 50 mM Tris, pH 9.0. Substrate: 8 mM Thymidine 5′-monophosphate p-nitrophenol ester sodium salt (Sigma Cat #T4510). Enzyme: 5 ng/L Recombinant Human ENPP-1 Protein (R&D Cat #6136-EN-010) in DMSO in 96-well clear assay plates
(§1) An eight point serial dilution of drugs was prepared in 10× in assay buffer with the final assay concentrations starting at 10 μM, 3 μM, 1 μM, 0.3 μM . . . 0 μM. A dilution of DMSO was included as a control. The assay plate was set up as follows with each well in duplicate: 81 μL assay buffer+10 μL ENPP1 inhibitor or DMSO+5 μL Substrate+4 μL Enzyme. Both the enzyme and substrate were added to opposite sides of the well to ensure that there was no interaction until all wells had both components. The plate was then centrifuged gently for 10 seconds, followed by an incubation at 37° C. for 45 minutes. The reaction was quantified by measuring absorbance at 405 nm using the Envision.
IC50 values are determined using GraphPad Prism 5 software. The data were entered as an X-Y plot into the software as percent inhibition for each concentration of the drug. The concentration values of the drug were log transformed and the nonlinear regression was carried out using the “sigmoidal dose-response (variable slope)” option within the GraphPad software to model the data and calculate IC50 values. The IC50 values reported are the concentration of drug at which 50% inhibition was reached.

The test system of assay [2] is Saos-2 Cells. The assay can be described thus: ENPP1 Mineralization Assay. Format: cell-based. On the procedure: Saos-2 Cells (ATCC CAT #HTB-85). Culture Medium. 24-well Tissue Culture Plate. Ascorbic Acid, 5 mg/mL (100×). β-Glycerophosphate, 1M (100×). Phosphate Buffered Saline. Alizarin Red, 40 mM pH 4.2. 70% Ethanol. Dye Extraction Reagent, 10% Methanol+10% Acetic Acid
Saos-2 cells were plated at a density of 1.5×10^6 cells/well and allowed to grow to 100% confluency over the following 1-2 days. Once completely confluent, the media was replaced with fresh media supplemented with 1× ascorbic acid, 1× β-glycerophosphate, and varying concentrations of ENPP1 inhibitor (if applicable). The addition of the mineralization components was considered Day 1. On Day 3, the media was gently aspirated with no wash followed by the addition of fresh media, mineralization components, and ENPP1 inhibitor (if applicable). On day 5, the media was gently aspirated and the cells were washed twice with PBS. The cells were then fixed with ice cold 70% ethanol for 1 hour at 4° C. Cells were washed once with PBS and stained with Alizarin Red for 30 minutes at room temperature with gentle rotation. Stained cells were washed three times with water for 10 minutes at room temperature with gentle rotation. After imaging cells, dye extraction reagent was added to each well and incubated for 30 minutes at room temperature. Alizarin red was quantified by measuring absorbance at a wavelength of 405 nm using the Envision.
FIG. 9 depicts a picture of results of a similar SAOS-2 mineralization assay. SAOS-2 cell were cultured in the presence and absence of ENPP1 inhibitor (compound 78, 107-02 or 108) and exposed to mineralization components for 3 days.

For assay [3], the target named is T2, Recombinant Human ENPP-1 Protein (purified in-house) (Homo sapiens (Human), UniProt P22413). Description: ENPP1 Assay (TMP), Example 2. It is filed as biochemical. Here is the method: Enzyme: 1 ng/μL Recombinant Human ENPP-1 Protein (purified in-house)—Assay Conc.: 5 ng/well of DMSO in 96-well clear assay plates.
as §1, with “A ten” for “An eight”, “75” for “81”, “DMSO Dilutions+10” for “DMSO+5”, “Substrate+5” for “Substrate+4”, “Enzyme (5 ng).” for “Enzyme.”, “Envision Plate Reader.” for “Envision.”

The target of assay [4] is T2, Recombinant Human ENPP-1 Protein (purified in-house). Description: ENPP1 Assay (ATP), Example 2. It is filed as biochemical. On the procedure: Assay Buffer: 1 mM CaCl2, 0.2 mM ZnCl2, 50 mM Tris, pH 9.0. Substrate: 100 μM Adenosine 5′-triphosphate disodium salt hydrate (Promega: V703A)—Assay Conc.: 10 μM. Enzyme: 1 ng/μL Recombinant Human ENPP-1 Protein (purified in-house)—Assay Conc.: 5 ng/well of DMSO in 96-well white assay plates. Cell Titer Glo (Promega, cat #G7572).
A ten point serial dilution of drugs was prepared in 10× in assay buffer with the final assay concentrations starting at 10 μM, 3 μM, 1 μM, 0.3 μM . . . 0 μM. A dilution of DMSO was included as a control. The assay plate was set up as follows with each well in duplicate: 75 μL assay buffer+10 μL ENPP1 inhibitor or DMSO Dilutions+10 μL Substrate+5 μL Enzyme (5 ng). Both the enzyme and substrate were added to opposite sides of the well to ensure that there was no interaction until all wells had both components. The plate was then centrifuged gently for 10 seconds, followed by incubation at RT for 20 minutes. To detect levels of ATP, Cell Titer Glo was added 1:1 to each well and incubated for 10 minutes. The reaction was quantified by measuring luminescence using the Envision Plate Reader.

For assay [5], the target named is T1, ENPP1 protein. The assay can be described thus: ENPP1 Thermal Shift Assay (Example 1). Format: binding. Here is the method:
Assay Buffer (1 mM CaCl2, 0.2 mM ZnCl2, 50 mM Tris, pH 9.0) 5000×SYPRO Orange (ThermoFisher cat #S6651) 384-well PCR Plates
Each drug was prepared as a 10× solution in the assay buffer and SYPRO Orange was diluted to 10× concentration in water. Wells were set up in duplicate in a 384-well PCR plate as follows: 14 μL assay buffer, 2 μL ENPP1 Inhibitor or DMSO, 2 μL (0.5 μg) ENPP1 protein. Each well was mixed and incubated on ice for 5 minutes. Post incubation, 2 μL of SYPRO Orange was mixed into each well and followed by a gentle centrifugation. The protein melt reaction was run using ViiA7 software with temperatures beginning at 25° C. and increasing by 0.05° C./s to the maximum temperature of 99° C.
In a 384-well plate, 1.0 μg of ENPP1 protein incubated with 100 μM of the corresponding drug for 5 minutes. Each well exposed to increasing temperatures to determine an unfolding temperature of the protein.

Where [6] appears, read: Table 5, TMP substrate, read-out: ENPP1 (IC50 μM) TMP.
[7] abbreviates: FIG. 5A, TMP substrate, read-out: IC50.
[8] abbreviates: FIG. 5B, ATP substrate, read-out: IC50.
The mark [9] stands for this setting: Table 5, ATP substrate, read-out: ENPP1 (IC50 μM) ATP.

T1 sequence (P22413 whole entry, looked up, change not shown): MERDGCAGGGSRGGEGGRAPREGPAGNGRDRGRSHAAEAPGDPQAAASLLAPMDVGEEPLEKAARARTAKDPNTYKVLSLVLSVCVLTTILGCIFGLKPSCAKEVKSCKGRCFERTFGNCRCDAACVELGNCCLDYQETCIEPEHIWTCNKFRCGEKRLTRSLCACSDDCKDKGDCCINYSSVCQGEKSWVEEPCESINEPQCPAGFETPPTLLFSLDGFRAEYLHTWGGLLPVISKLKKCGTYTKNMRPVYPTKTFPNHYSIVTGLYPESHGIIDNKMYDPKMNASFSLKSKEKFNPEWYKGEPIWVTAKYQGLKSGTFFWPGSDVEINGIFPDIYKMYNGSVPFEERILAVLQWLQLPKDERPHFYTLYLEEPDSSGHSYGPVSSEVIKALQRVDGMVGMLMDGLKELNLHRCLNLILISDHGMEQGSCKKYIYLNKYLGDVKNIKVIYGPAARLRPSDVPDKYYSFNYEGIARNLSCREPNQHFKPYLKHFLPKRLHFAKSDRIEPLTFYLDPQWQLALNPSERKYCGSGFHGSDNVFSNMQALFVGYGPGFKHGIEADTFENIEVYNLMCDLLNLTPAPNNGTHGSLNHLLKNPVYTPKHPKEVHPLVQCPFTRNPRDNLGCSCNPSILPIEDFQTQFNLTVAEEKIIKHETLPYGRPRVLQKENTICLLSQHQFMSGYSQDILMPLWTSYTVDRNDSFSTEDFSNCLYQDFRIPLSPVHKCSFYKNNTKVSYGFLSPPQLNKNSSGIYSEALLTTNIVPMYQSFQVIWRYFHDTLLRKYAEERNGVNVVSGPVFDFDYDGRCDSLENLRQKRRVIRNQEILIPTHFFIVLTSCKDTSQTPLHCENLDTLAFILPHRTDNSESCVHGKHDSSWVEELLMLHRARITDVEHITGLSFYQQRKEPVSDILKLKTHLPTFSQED
T2 sequence (P22413 whole entry, looked up): as the sequence (P22413 whole entry, looked up, change not shown) above

`O=C(CSc1nc2cc(Cl)ncc2[nH]1)Nc1ccc2c(c1)OCO2` [Compound 7, N-(benzo[d][1,3]dioxol-5-yl)-2-((6-chloro-1H-imidazo[4,5-c]pyridin-2-yl)thio)acetamide]: in assay [1] (Tables 3 and 4, read-out: ENPP1 inhibition (IC50)), the IC50 is above 50000 nM.

As for `COc1ccc(NC(=O)CSc2nc3cc(C#N)ncc3[nH]2)cc1OC` [Compound 68, 2-((6-Cyano-3H-imidazo[4,5-c]pyridin-2-yl)thio)-N-(3,4-dimethoxyphenyl)acetamide], in assay [2] (FIG. 4, normalized against DMSO control), the “inhibiting ENPP1 ability to produce mineralized nodules” value is on record as “effective”. In assay [1] (FIG. 1), the “inhibiting the activity of ENPP1” value is “effective”. Further, the IC50 in assay [1] (Table 1, FIG. 1, read-out: IC50) was 114 nM.

As for `COc1nc(NC(=O)CSc2nc3c(C)c(C#N)ncc3[nH]2)ccc1O` [Compound 96, 2-((6-cyano-7-methyl-3H-imidazo[4,5-c]pyridin-2-yl)thio)-N-(5-hydroxy-6-methoxypyridin-2-yl)acetamide], the IC50 in assay [3] (setting [6]) is above 50 µM.

Consider `COc1ccc(NC(=O)CSc2nc3c(C)c(C#N)ncc3[nH]2)cc1S(C)(=O)=O` [Compound 103, 2-((6-cyano-7-methyl-3H-imidazo[4,5-c]pyridin-2-yl)thio)-N-(4-methoxy-3-(methylsulfonyl)phenyl)acetamide], for which, in assay [3] (setting [6]), the IC50 is above 50 µM.

As for `Cc1c(C#N)ncc2[nH]c(SCC(=O)Nc3ccc(F)c(S(N)(=O)=O)c3)nc12` [Compound 104, 2-((6-cyano-7-methyl-3H-imidazo[4,5-c]pyridin-2-yl)thio)-N-(4-fluoro-3-sulfamoylphenyl)acetamide], in assay [3] (setting [6]), the IC50 came out at 2.85 µM.

In the case of `COc1ccc(NC(=O)CSc2nc3c(C)c(C#N)ncc3[nH]2)cc1OP(=O)(O)O` [Compound 107, Sodium 5-(2-((6-cyano-7-methyl-3H-imidazo[4,5-c]pyridin-2-yl)thio)acetamido)-2-methoxyphenyl phosphate], the IC50 in assay [3] (setting [7]) is 0.232 µM; in assay [3] (Table 5, TMP substrate, phosphate, read-out: ENPP1 (IC50 μM) TMP), 0.231 µM; in assay [4] (setting [8]) it was 0.116 µM; in assay [4] (Table 5, ATP substrate, phosphate, read-out: ENPP1 (IC50 μM) ATP), 0.116 µM.

As for `COc1cc(NC(=O)CSc2nc3c(C)c(C#N)ncc3[nH]2)ccc1OP(=O)([O-])[O-].[Na+].[Na+]` [Compound 108, sodium 4-(2-((6-Cyano-7-methyl-3H-imidazo[4,5-c]pyridin-2-yl)thio)acetamido)-2-methoxyphenyl phosphate], the total mineralization result in assay [2] (FIG. 9, mineralization components for 3 days) is on record as “significant decrease”. Moreover, the “Tm (° C.)” value in assay [5] (Table 2, FIG. 7, 100 μM drug, 1.0 μg ENPP1, NT 60.05) came to 63.60 °C. The ΔTm at 100 µM in assay [5] (read-out: ΔTm (° C.)) was 3.54 °C. Further, the IC50 in assay [3] (setting [7]) was found to be 2.04 µM; in assay [3] (setting [6]) it was 2.04 µM; in assay [4] (setting [8]), 0.339 µM; in assay [4] (setting [9]), 0.339 µM.

Consider `COc1ccc(NC(=O)CSc2nc3c(C)c(C#N)ncc3[nH]2)cc1OCCO` [Compound 109, 2-((6-cyano-7-methyl-3H-imidazo[4,5-c]pyridin-2-yl)thio)-N-(3-(2-hydroxyethoxy)-4-methoxyphenyl)acetamide], for which the IC50 in assay [3] (setting [6]) was found to be 3.61 µM; in assay [4] (setting [9]), 3.26 µM.

For the compound `Cc1c(C#N)ncc2[nH]c(SCC(=O)Nc3ccc(F)c(OCCO)c3)nc12` [Compound 110, 2-((6-cyano-7-methyl-3H-imidazo[4,5-c]pyridin-2-yl)thio)-N-(4-fluoro-3-(2-hydroxyethoxy)phenyl)acetamide], the IC50 in assay [3] (setting [6]) was above 50 µM.

As for `COc1ccc(NC(=O)CSc2nc3c(C)c(C#N)ncc3[nH]2)cc1OCC1CCN(C)CC1` [Compound 111, 2-((6-cyano-7-methyl-3H-imidazo[4,5-c]pyridin-2-yl)thio)-N-(4-methoxy-3-((1-methylpiperidin-4-yl)methoxy)phenyl)acetamide hydrochloride], in assay [3] (setting [6]), the IC50 was found to be 22.3 µM.

In the case of `COc1ccc(NC(=O)CSc2nc3c(C)c(C#N)ncc3[nH]2)cc1N1CCC(O)CC1` [Compound 112, 2-((6-cyano-7-methyl-3H-imidazo[4,5-c]pyridin-2-yl)thio)-N-(3-(4-hydroxypiperidin-1-yl)-4-methoxyphenyl)acetamide hydrochloride], the IC50 in assay [3] (setting [6]) and in assay [4] (setting [9]) was above 50 µM throughout.

Consider `COc1ccc(NC(=O)CSc2nc3c(C)c(C#N)ncc3[nH]2)cc1O[C@H]1CC[C@H](N)CC1` [Compound 113, N-(3-(((1r,4r)-4-aminocyclohexyl)oxy)-4-methoxyphenyl)-2-((6-cyano-7-methyl-3H-imidazo[4,5-c]pyridin-2-yl)thio)acetamide Hydrochloride], for which the IC50 in assay [3] (setting [6]) was 22.2 µM.

On to `COc1ccc(NC(=O)CSc2nc3c(C)c(C#N)ncc3[nH]2)cc1N[C@H]1CC[C@H](N)CC1` [Compound 114, N-(3-(((1r,4r)-4-aminocyclohexyl)amino)-4-methoxyphenyl)-2-((6-cyano-7-methyl-3H-imidazo[4,5-c]pyridin-2-yl)thio)acetamide hydrogen chloride], for which the IC50 in assay [3] (setting [6]) and in assay [4] (setting [9]) was above 50 µM throughout.

As for `COc1ccc(NC(=O)c2cnc(CSc3nc4c(C)c(C#N)ncc4[nH]3)s2)cc1O` [Compound 115, sodium 5-(2-(((6-cyano-7-methyl-3H-imidazo[4,5-c]pyridin-2-yl)thio)methyl)thiazole-5-carboxamido)-2-methoxyphenolate], the IC50 worked out at 1.61 µM in assay [3] (setting [7]), 1.61 µM in assay [3] (setting [6]), 0.191 µM in assay [4] (setting [8]) and 0.196 µM in assay [4] (setting [9]).
